What was measured:
[1] = Pharmacokinetic study via oral administration in mice, ocular concentrations; format: in vivo, mice C57BL/6; conditions: for Eye Exposure 50 mg/kg p.o. AUC: Table 3, repeats the eye exposure of Table 2; for Tmax: C57BL/6, mouse, eye, po
Protocol: (§1) The pharmacokinetic study of the chemical compounds (C) following the oral administration thereof was conducted using mice C57BL/6 (January, 53940 The Genest Saint Isle, France). The chemical compounds derived from norbixin (C) were administered at a dose of 50 mg/kg of body weight. After administration, the blood was sampled at the tail at t=0.25 h; 0.5 h; 1 h; 3 h; 6 h and 8 h. The blood samples were centrifuged and the plasmas taken. The dosage of the plasma samples made it possible to determine pharmacokinetic parameters, namely Cmax, which corresponds to the maximum concentration observed after the administration of the molecule, Tmax which is the time required to reach maximum concentration after administration of the molecule and the AUC: the area under the curve which corresponds to the plasma exposure (FIG. 2).
In parallel, the ocular concentrations of the chemical compounds derived from norbixin (C) were dosed in the following way (FIG. 1): both eyes of each mouse were taken in Precellys tubes and stored at −80° C. until the time of dosing. The eyes are then ground in the Precellys tubes with a bench homogenizer, Fast-prep (Fischer Scientific, Hampton, United States) in a mixture of organic solvents, in a first step with 500 μL of chloroform/methanol (1/1, v/v) then 500 μL of chloroform/dichloromethane (1/1, v/v). The supernatants are recovered at each step and transferred to a 96-well plate of 2 mL.
For the quantification of the chemical compounds C, a calibration curve is carried out with 8 standards (5 to 5,000 ng/mL) in the same organic solvent mixtures and transferred (100 μL) to the 96-well plate of 2 mL.
The supernatants and standards are evaporated in a EZ2 (Genevac, Ipswich, United Kingdom), without heating, then taken with 100 μL of DMSO/methanol (20:80, v/v) before being transferred to a 96-well plate of 200 μL.
(§2) The LC-MSMS analysis is carried out with a HPLC 1200 Infinity chain (Agilent Technologies, Santa-Clara, United States), a UV detector and a mass spectrometer QQQ6420 (Agilent Technologies Santa-Clara, United States). The injection volume is 5 μL. The chemical compounds C are eluted on an inverse phase column C18 (2.1*50 mm, particles 3 μm; Ace-C18-Excel, AIT) with a gradient of acetonitrile and water (containing 0.1% formic acid) and a flow rate of 0.3 mL/min. The conditions of the gradient can change according to the chemical compound C analyzed. The UV detector analyzes at 460 nm and the mass spectrometer analyzed in Mode MRM—Positive.
(§3) Table 2 discloses the pharmacokinetic results of the chemical compounds C following the administration p.o. 50 mg/kg in D-α-Tocopheryl polyethylene glycol 1000 succinate (VitE-TPGS) 20% in a sodium bicarbonate buffer (0.1M).

[2] = Pharmacokinetic study via oral administration in mice, plasma concentrations; format: in vivo, mice C57BL/6
Protocol: as §1, §2, §3

[3] = tested on: primary cultures of RPE of adult pigs; experiment: In vitro photoprotection of RPE cells illuminated with blue light in the presence of A2E; format: cell-based, pig; conditions: A2E 30 μM, survival 24 h after illumination
Description: In addition to better distribution in the target-tissue, selecting new compounds must also be based on good photo-protective activity that limits the loss of the cells of the RPE and thus reducing the retinal degeneration observed during the AMD and other degenerative diseases such as Retinitis pigmentosa and Stargardt's disease. At the cellular level, on cultures of cells the RPE coming from pig retina, Fontaine et al. (2016) have shown that a treatment with norbixin (BIO201) protects the cells of the RPE against apoptosis following an illumination in the presence of A2E (80% survival 24 h after exposure). This same screening test according to the percentage of photoprotection was used so as to determine its modulation by and the chemical compounds derived from norbixin (C) object of the present invention in comparison with the photo-protective effect of norbixin and characterize these modulations from a statical standpoint.
The test in vitro described hereinabove and intended to study the photo-protective effect of norbixin was used so as to quantify the photo-protective effects of the various chemical compounds derived from norbixin (C) on the cells of the RPE illuminated with blue light in the presence of A2E (FIG. 3). The photo-protective effect of the molecules was evaluated in a phototoxicity cellular model induced by treatment by A2E followed by an illumination with blue light. The term “blue radiation” means the radiation corresponding to the blue band of the visible light spectrum, i.e. of a wavelength comprised between 435 and 490 nm. This model uses primary cultures of RPE of adult pigs. The cell survival is quantified thanks to a test of cellular viability. At −48 h the compounds to be tested (in solution at 5 mM in the DMSO) are added to obtain the final concentrations of 1 to 20 μM) then at −19 h of the A2E (final concentration 30 μM) and the cells (time 0 h) are illuminated. 24 h after the survival of the cells is measured. The acquisition of images, as well as the processing thereof, are carried out using a fluorescence microscope controlled by the Metamorph software and a dedicated quantification program. The experiments are conducted on a 96-well microplate in quadruplicate and the experiment is reproduced at least four times. The results are expressed in the form of a ratio representing the number of living cells in the wells treated by the molecules to be tested, divided by the number of living cells in the controlled wells (treated by the dilution medium without A2E). This test made it possible hereinabove to reveal the photo-protective activity of norbixin (Fontaine et al. 2016).

[4] = tested on: primary cultures of RPE of adult pigs; conditions: 24 h after exposure; Fontaine et al. (2016); cited from earlier work
[5] = mice, p.o. 50 mg/kg in VitE-TPGS 20% in sodium bicarbonate buffer (0.1M)
[6] = C57BL/6, mouse, in vivo, po, 50 mg/kg
[7] = Sus scrofa, RPE, 10 μM compound

Row | SMILES | Eye Exposure 50 mg/kg p.o. AUC [1] [ng · h/eye] | Eye CMax [1, 5] [ng/eye] | Eye TMax [1, 5] [min] | Plasma CMax [2, 5] [µg/mL] | Plasma TMax [2, 5] [min] | Plasma Exposure ([2]; mice, p.o. 50 mg/kg in VitE-TPGS 20% in sodium bicarbonate buffer (0.1M), area under the curve) [ng·h/mL] | Photoprotection (%) 5 μM Mean ([3]; 5 μM compound) [%] | Photoprotection (%) 10 μM Mean ([3]; 10 μM compound) [%] | Photoprotection (%) 20 μM Mean ([3]; 20 μM compound) [%] | survival of RPE cells after illumination in the presence of A2E [4] [%] | Tmax [1, 5] [min] | Cmax [2, 6] [ng/mL] | Plasma Exposure [2, 6] [ng·h/mL] | Tmax [2, 6] [min] | viability at 5 µM ([3]; Sus scrofa, RPE, 5 μM compound) [%] | viability at 10 µM [3, 7] [%] | viability at 20 µM ([3]; Sus scrofa, RPE, 20 μM compound) [%]
1 | CC(/C=C/C=C(C)/C=C/C(=O)O)=C\C=C\C=C(C)\C=C\C=C(C)\C=C\C(=O)O [BIO201, 6,6′-diapocarotene-6,6′-dioate, reference compound] | 22.4 | 8.6 | 30 | 34.99 | 15 | 100700 | 19.2 | 34.1 | 63.6 | 80 |  |  |  |  |  |  | 
2 | CC(=C/C=C/C(C)=C/C=C/C=C(C)/C=C/C=C(C)/C=C/C(=O)N1CCCC1)/C=C/C(=O)O [C7, 1-pyrrolidinamido-(2E,4E,6E,8E,10E,12E,14E,16Z,18E)-4,8,13,17-tetramethylicosa-2,4,6,8,10,12,14,16,18-nonaenedioate] | 18.5 | 7 |  |  |  |  |  |  |  |  | 30 | 6890 | 17290 | 30 | 5.2 | 52.8 | 
3 | CC(=C/C=C/C(C)=C/C=C/C=C(C)/C=C/C=C(C)/C=C/C(=O)N[C@H]1CC[C@H](O)CC1)/C=C/C(=O)O [C19, 1-[(E)-4-hydroxycyclohexamido](2E,4E,6E,8E,10E,12E,14E,16Z,18E)-4,8,13,17-tetramethylicosa-2,4,6,8,10,12,14,16,18-nonaenedioate] | 37.5 | 5.7 |  |  |  |  |  |  |  |  | 30 | 6620 | 22800 | 15 | 60.6 | 60.6 | 79.9
